Activity and IC50 data for 3 compounds are collected here from ChEMBL document CHEMBL4118201, “Design and synthesis of new antitumor agents with the 1,7-epoxycyclononane framework. Study of their anticancer action mechanism by a model compound” (Bioorg Med Chem, 2018).

Each structure is given as a SMILES string. Calls of active or inactive are those of the source. The calls are words filed in the database; no cut-off is given here.

Test [1] deals with MCF7. The test is described as follows: Induction of apoptosis in human MCF7 cells assessed as nuclear condensation at IC50 after 24 hrs by DAPI staining based immunofluorescence microscopic analysis. It is filed as functional, cell-based.
The next test relates to Calf thymus DNA. The test is described as follows: Binding affinity to calf thymus DNA at 0.1 to 0.5 molar ratio per nucleotide incubated for 24 hrs under dark condition by circular dichroism spectral analysis. The class given is nucleic-acid assay. The conditions noted are these: Bos taurus.
The subject of test [2] is HL-60. The test is described as follows: Induction of apoptosis in human HL60 cells assessed as early apoptotic cells at IC50 after 24 hrs by annexin-V-FITC/propidium iodide staining based flow cytometric analysis (reference value: 4.2%). The class given is functional.
Test [3] concerns MCF7. The test is described as follows: Antiproliferative activity against human MCF7 cells after 24 hrs by XTT assay. The class given is functional, cell-based. The settings on record: MCF7, 24 h. (In general: Formazan colour is commonly taken as a measure of viable cells.)
Test [4] concerns DNA. The test is described as follows: Binding affinity to Escherichia coli supercoiled pBR322 DNA assessed as 3 to 5 cross links per DNA molecule at 0.005 molar ratio per nucleotide incubated for 24 hrs under dark condition by tapping mode atomic force microscopic analysis (reference value: 37%). The class given is nucleic-acid assay.
For test [5], the system named is HL-60. The test is described as follows: Induction of apoptosis in human HL60 cells assessed as necrotic cells at IC50 after 24 hrs by annexin-V-FITC/propidium iodide staining based flow cytometric analysis (reference value: 0.06%). It is filed as functional. (Flow cytometry measures light scatter and fluorescence of single cells or particles in a stream.)
For test [6], the system named is MCF7. The test is described as follows: Cell cycle arrest in human MCF7 cells assessed as accumulation at G2/M-phase at IC50 after 24 hrs by propidium iodide staining based flow cytometric method. It is filed as functional.
The test system of test [7] is MCF7. The test is described as follows: Induction of apoptosis in human MCF7 cells assessed as cell blobbing at IC50 after 24 hrs by DAPI staining based immunofluorescence microscopic analysis. The class given is functional.
For test [8], the system named is HL-60. The test is described as follows: Antiproliferative activity against human HL60 cells after 72 hrs by XTT assay. The class given is functional, cell-based. The conditions noted are these: HL-60, 72 h.
Test [9] concerns MCF7. The test is described as follows: Induction of apoptosis in human MCF7 cells assessed as nuclear fragmentation at IC50 after 24 hrs by DAPI staining based immunofluorescence microscopic analysis. The class given is functional, cell-based.
The test system of test [10] is HL-60. The test is described as follows: Cell cycle arrest in human HL60 cells assessed as accumulation at G2/M-phase at IC50 after 24 hrs by propidium iodide staining based flow cytometric method (reference value: 14.06%). The class given is functional.
For test [11], the system named is HL-60. The test is described as follows: Induction of apoptosis in human HL60 cells assessed as viable cells at IC50 after 24 hrs by annexin-V-FITC/propidium iodide staining based flow cytometric analysis (reference value: 93.81%). The class given is functional.
The subject of test [12] is DNA. The test is described as follows: Binding affinity to Escherichia coli supercoiled pBR322 DNA assessed as DNA undergoing cross links at 0.005 molar ratio per nucleotide incubated for 24 hrs under dark condition by tapping mode atomic force microscopic analysis. The class given is nucleic-acid assay.
Test [13] deals with DNA. The test is described as follows: Binding affinity to Escherichia coli supercoiled pBR322 DNA assessed as more than 10 cross links per DNA molecule at 0.005 molar ratio per nucleotide incubated for 24 hrs under dark condition by tapping mode atomic force microscopic analysis (reference value: 1%). It is filed as nucleic-acid assay.
Test [14] has as its system HL-60. The test is described as follows: Induction of apoptosis in human HL60 cells assessed as late apoptotic cells at IC50 after 24 hrs by annexin-V-FITC/propidium iodide staining based flow cytometric analysis (reference value: 1.93%). It is filed as functional.
In test [15] the test system is HL-60. The test is described as follows: Antiproliferative activity against human HL60 cells after 24 hrs by XTT assay. It is filed as functional, cell-based. The conditions noted are these: HL-60, 24 h.
Test [16] deals with MCF7. The test is described as follows: Cell cycle arrest in human MCF7 cells assessed as accumulation at G0/G1 phase at IC50 after 24 hrs by propidium iodide staining based flow cytometric method. The class given is functional.
Test [17] concerns HL-60. The test is described as follows: Cell cycle arrest in human HL60 cells assessed as accumulation at S-phase at IC50 after 24 hrs by propidium iodide staining based flow cytometric method (reference value: 34.24%). The class given is functional.
For test [18], the system named is MCF7. The test is described as follows: Induction of apoptosis in human MCF7 cells assessed as microtubule disintegration at IC50 after 24 hrs by indirect immunofluorescence analysis. The class given is functional, cell-based.
Test [19] deals with HL-60. The test is described as follows: Cell cycle arrest in human HL60 cells assessed as accumulation at sub-G0/G1 phase at IC50 after 24 hrs by propidium iodide staining based flow cytometric method (reference value: 3.9%). The class given is functional.
The test system of test [20] is MCF7. The test is described as follows: Antiproliferative activity against human MCF7 cells after 72 hrs by XTT assay. It is filed as functional, cell-based. The settings on record: MCF7, 72 h.
For test [21], the system named is MCF7. The test is described as follows: Induction of apoptosis in human MCF7 cells assessed as reduction in cell size at IC50 after 24 hrs by DAPI staining based immunofluorescence microscopic analysis. The class given is functional.
For test [22], the system named is MCF7. The test is described as follows: Induction of apoptosis in human MCF7 cells assessed as shrinkage of cell core at IC50 after 24 hrs by DAPI staining based immunofluorescence microscopic analysis. The class given is functional.
Test [23] relates to DNA. The test is described as follows: Binding affinity to Escherichia coli supercoiled pBR322 DNA assessed as DNA structural variation at 0.1 to 0.5 molar ratio per nucleotide incubated for 24 hrs under dark condition by ethidium bromide staining based agarose gel electrophoresis. The class given is nucleic-acid assay.
In test [24] the test system is DNA. The test is described as follows: Binding affinity to Escherichia coli supercoiled pBR322 DNA assessed as DNA undergoing kinks at 0.005 molar ratio per nucleotide incubated for 24 hrs under dark condition by tapping mode atomic force microscopic analysis. The class given is nucleic-acid assay.
Test [25] concerns HL-60. The test is described as follows: Cell cycle arrest in human HL60 cells assessed as accumulation at G0/G1 phase at IC50 after 24 hrs by propidium iodide staining based flow cytometric method (reference value: 51.7%). The class given is functional.
Test [26] relates to MCF7. The test is described as follows: Induction of apoptosis in human MCF7 cells assessed as DNA condensation at IC50 after 24 hrs by DAPI staining based immunofluorescence microscopic analysis. It is filed as functional, cell-based.
Test [27] concerns DNA. The test is described as follows: Binding affinity to Escherichia coli supercoiled pBR322 DNA assessed as 6 to 8 cross links per DNA molecule at 0.005 molar ratio per nucleotide incubated for 24 hrs under dark condition by tapping mode atomic force microscopic analysis (reference value: 12%). It is filed as nucleic-acid assay.
The test system of test [28] is DNA. The test is described as follows: Binding affinity to Escherichia coli supercoiled pBR322 DNA assessed as supercoiled areas of plasmid DNA at 0.005 molar ratio per nucleotide incubated for 24 hrs under dark condition by tapping mode atomic force microscopic analysis (reference value: 3.5%). The class given is nucleic-acid assay.
Test [29] deals with DNA. The test is described as follows: Binding affinity to Escherichia coli supercoiled pBR322 DNA assessed as 9 to 10 cross links per DNA molecule at 0.005 molar ratio per nucleotide incubated for 24 hrs under dark condition by tapping mode atomic force microscopic analysis (reference value: 2%). The class given is nucleic-acid assay.
Test [30] concerns MCF7. The test is described as follows: Induction of apoptosis in human MCF7 cells assessed as formation of apoptotic bodies at IC50 after 24 hrs by DAPI staining based immunofluorescence microscopic analysis. It is filed as functional, cell-based.
Test [31] relates to DNA. The test is described as follows: Binding affinity to Escherichia coli supercoiled pBR322 DNA assessed as 0 to 2 cross links per DNA molecule at 0.005 molar ratio per nucleotide incubated for 24 hrs under dark condition by tapping mode atomic force microscopic analysis (reference value: 49%). It is filed as nucleic-acid assay.
Test [32] has as its system MCF7. The test is described as follows: Cell cycle arrest in human MCF7 cells assessed as accumulation at S-phase at IC50 after 24 hrs by propidium iodide staining based flow cytometric method. It is filed as functional.
Test [33] deals with MCF7. The test is described as follows: Cell cycle arrest in human MCF7 cells assessed as accumulation at sub-G0/G1 phase at IC50 after 24 hrs by propidium iodide staining based flow cytometric method. It is filed as functional.

On to `CC(=O)O[C@H](OCc1ccccc1)[C@]1(C)C(=O)[C@@H](I)C(=O)[C@@H](C)[C@@H]2CC[C@H]1O2`, for which the result in the test with MCF7 [1], with MCF7 [7], in the test on MCF7 [9], with MCF7 [16], in the test with MCF7 [18] and in the test with MCF7 [21] was Active. In addition, the outcome with MCF7 [22], with MCF7 [26], in the test with MCF7 [30], with MCF7 [32] and in the test on MCF7 [33] was Active. Further, the outcome with Calf thymus DNA, with MCF7 [6], in the test with DNA [12], in the test with DNA [23] and in the test on DNA [24] was inactive. Further, the Activity with HL-60 [2] is 16.97%; in the test with DNA [4], 28%; with HL-60 [5] it was 0.35%; in the test with HL-60 [10], 6.33%; in the test with HL-60 [11], 55.71%; in the test on DNA [13], 1%. Besides, the Activity worked out at 26.85% in the test on HL-60 [14]; 26.31% in the test on HL-60 [17]; 31.14% in the test with HL-60 [19]; 67.37% with HL-60 [25]; 19% with DNA [27]; 3.6% in the test on DNA [28]. The figures for the Activity in the test on DNA [29] and in the test with DNA [31] were 1% and 51%, respectively. Besides, the IC50 – broadly, the concentration that gives 50% inhibition – amounted to 27.2 µM with MCF7 [3], 3.24 µM in the test with HL-60 [8], 3.05 µM with HL-60 [15] and 18.8 µM in the test on MCF7 [20].
Regarding `C[C@H]1[C@H]2CC[C@H](O2)[C@]2(C)[C@@H](OCc3ccccc3)C(=O)C[C@]12O` (relative stereo), the IC50 in the test on MCF7 [3], in the test on HL-60 [8], in the test with HL-60 [15] and with MCF7 [20] was > 250 µM throughout.
For the compound `COC(=O)Nc1nc2cc(C(=O)c3cccs3)ccc2[nH]1` [NOCODAZOLE], the Activity came to 33.46% in the test on HL-60 [10], 21.26% in the test with HL-60 [17], 14.11% with HL-60 [19] and 45.28% in the test on HL-60 [25].
